Test results taken from patent US10383866B2, “Alkyl dihydroquinoline sulfonamide compounds” (AMGEN INC., priority 2015, dated 2019).

Experiments:
HLM in vitro = type: in vitro ADME, human
human Nav1.7 = biological target: T1, human Nav1.7 (Homo sapiens, UniProt Q15858); test: Nav 1.7 In Vitro PX Assay (PatchXpress whole cell voltage clamp, partially inactivated state); type: cell-based; conditions: HEK 293 cells stably transfected with human Nav1.7, holding potential yielding 20 to 50% inactivation, read-out: hNav1.7 PX IC50
T1 construct: expressed in transfected cells; host or cells: HEK 293
T1 sequence (Q15858 whole entry): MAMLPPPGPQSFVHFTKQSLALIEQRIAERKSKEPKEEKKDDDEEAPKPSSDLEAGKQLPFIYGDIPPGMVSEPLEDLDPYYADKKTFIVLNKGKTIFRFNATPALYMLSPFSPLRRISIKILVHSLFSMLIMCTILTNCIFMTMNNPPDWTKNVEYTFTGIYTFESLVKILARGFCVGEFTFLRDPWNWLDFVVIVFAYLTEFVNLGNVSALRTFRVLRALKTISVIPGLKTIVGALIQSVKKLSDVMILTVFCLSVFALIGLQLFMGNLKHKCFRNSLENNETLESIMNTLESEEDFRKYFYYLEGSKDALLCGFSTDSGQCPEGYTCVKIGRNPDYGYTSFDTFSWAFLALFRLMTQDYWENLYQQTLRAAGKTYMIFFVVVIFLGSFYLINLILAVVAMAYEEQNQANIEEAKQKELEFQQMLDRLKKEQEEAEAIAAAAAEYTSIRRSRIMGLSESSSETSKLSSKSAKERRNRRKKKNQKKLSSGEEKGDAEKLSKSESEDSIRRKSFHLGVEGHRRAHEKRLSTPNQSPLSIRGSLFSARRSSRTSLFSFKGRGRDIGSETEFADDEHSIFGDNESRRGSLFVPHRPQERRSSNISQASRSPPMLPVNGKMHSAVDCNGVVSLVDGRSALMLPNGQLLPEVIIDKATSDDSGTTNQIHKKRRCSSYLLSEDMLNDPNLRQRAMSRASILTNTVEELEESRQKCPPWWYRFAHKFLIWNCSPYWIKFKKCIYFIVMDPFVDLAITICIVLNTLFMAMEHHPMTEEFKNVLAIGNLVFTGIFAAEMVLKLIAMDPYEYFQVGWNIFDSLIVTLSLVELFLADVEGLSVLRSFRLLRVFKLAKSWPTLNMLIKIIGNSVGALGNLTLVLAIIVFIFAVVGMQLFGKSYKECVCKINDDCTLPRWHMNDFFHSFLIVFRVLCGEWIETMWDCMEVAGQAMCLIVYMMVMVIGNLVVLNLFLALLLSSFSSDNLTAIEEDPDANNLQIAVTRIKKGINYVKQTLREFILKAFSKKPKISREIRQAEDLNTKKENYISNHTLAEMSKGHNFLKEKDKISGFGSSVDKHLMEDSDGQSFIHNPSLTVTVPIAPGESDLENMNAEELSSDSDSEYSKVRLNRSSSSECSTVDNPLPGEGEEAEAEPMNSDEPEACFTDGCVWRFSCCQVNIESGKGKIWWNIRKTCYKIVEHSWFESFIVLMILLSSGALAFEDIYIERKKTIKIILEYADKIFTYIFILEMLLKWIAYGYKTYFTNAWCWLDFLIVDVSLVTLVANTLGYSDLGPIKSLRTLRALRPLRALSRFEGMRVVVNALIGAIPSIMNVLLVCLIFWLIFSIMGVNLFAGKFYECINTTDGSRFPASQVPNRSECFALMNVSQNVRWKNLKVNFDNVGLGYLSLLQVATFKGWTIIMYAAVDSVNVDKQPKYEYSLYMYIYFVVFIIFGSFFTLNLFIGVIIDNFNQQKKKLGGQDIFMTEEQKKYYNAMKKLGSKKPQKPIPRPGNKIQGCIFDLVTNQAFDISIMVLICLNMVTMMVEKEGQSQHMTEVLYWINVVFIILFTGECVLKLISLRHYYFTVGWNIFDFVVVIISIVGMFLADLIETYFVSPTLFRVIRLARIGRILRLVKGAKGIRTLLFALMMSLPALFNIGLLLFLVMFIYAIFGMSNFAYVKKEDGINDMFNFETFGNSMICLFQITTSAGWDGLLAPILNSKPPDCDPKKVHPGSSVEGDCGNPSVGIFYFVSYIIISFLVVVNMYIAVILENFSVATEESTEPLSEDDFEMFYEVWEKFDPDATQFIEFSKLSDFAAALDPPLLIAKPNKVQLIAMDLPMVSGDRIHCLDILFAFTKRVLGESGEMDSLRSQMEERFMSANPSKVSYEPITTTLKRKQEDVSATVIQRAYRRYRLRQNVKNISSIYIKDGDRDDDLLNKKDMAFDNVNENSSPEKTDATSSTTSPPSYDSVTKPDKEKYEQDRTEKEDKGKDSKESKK
Procedure: Nav 1.7 In Vitro PX Assay
HEK 293 cells stably transfected with human Nav1.7 were recorded in whole cell voltage clamp mode with the PatchXpress automated electrophysiology system (Molecular Devices, LLC, Sunnyvale, Calif.). Compound effects were measured on a partially inactivated state of the sodium channel Cells were clamped to a holding potential yielding 20 to 50% inactivation. To elicit sodium current, channels were activated by pulsing to −10 mV for 20 msec. This voltage protocol was repeated at a rate of 0.1 Hz throughout the experiment. A single concentration of test compound was applied to cells for a duration of 3 minutes. Peak sodium current was measured at the end of the compound addition period to determine percent inhibition. Three to five cells were tested per concentration, and IC50 curves were fitted to percent inhibition as a function of concentration.

human PXR = biological target: T2, human PXR (Homo sapiens, UniProt O75469); test: Human PXR @ 2 uM POC; type: in vitro ADME
T2 sequence (O75469 1-434): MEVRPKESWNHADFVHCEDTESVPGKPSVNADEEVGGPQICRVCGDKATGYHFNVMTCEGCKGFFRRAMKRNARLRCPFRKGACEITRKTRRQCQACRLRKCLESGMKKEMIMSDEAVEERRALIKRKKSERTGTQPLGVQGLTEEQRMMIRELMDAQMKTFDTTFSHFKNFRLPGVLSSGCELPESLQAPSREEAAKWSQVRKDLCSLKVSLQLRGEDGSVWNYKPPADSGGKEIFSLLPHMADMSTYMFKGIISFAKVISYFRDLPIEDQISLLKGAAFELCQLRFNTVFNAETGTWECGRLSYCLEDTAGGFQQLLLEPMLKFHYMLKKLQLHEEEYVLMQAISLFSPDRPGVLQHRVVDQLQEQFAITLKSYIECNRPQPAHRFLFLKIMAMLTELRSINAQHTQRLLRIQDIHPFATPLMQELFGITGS

hNav1.7 = biological target: T3, hNav1.7 (Homo sapiens, UniProt Q15858); test: Nav 1.7 IWQ In Vitro Assay (IonWorks Quattro population patch-clamp); type: cell-based; conditions: HEK 293 cells stably transfected with Nav 1.7, 26th pulse to -20 mV
T3 construct: expressed in transfected cells; host or cells: HEK 293
T3 sequence (Q15858 whole entry): as the sequence (Q15858 whole entry) above
Procedure: Nav 1.7 or Nav 1.5 IWQ In Vitro Assay
HEK 293 Cells stably transfected with either Nav 1.7 or Nav 1.5 were recorded in population patch-clamp mode with the IonWorks® Quattro automated electrophysiology system in accordance with the manufacturer's specifications (Molecular Devices, LLC, Sunnyvale, Calif.). Sodium channel currents were measured in response to a train of depolarizations that induced successively greater inactivation.
Cells were held at −110 mV for three seconds (Nav 1.7) or half a second (Nav 1.5) from a holding voltage of −15 mV, then put through a series of 26 pulses of 150 msec duration to −20 mV at a frequency of 5 Hz. Cells were then left unclamped for a period of 3 to 8 minutes while a single concentration of test compound was added. Cells were then reclamped and put through the same voltage protocol. Current at the end of the 26th pulse to −20 mV was subtracted from the peak current evoked by the 26th pulse to −20 mV to correct for leak current. Percent block was calculated for each concentration in duplicate, and IC50 curves were fitted to percent block as a function of concentration.

Structure (SMILES) | HLM in vitro (HLM in vitro) | IC50 (human Nav1.7) [µM] | human PXR @ 2 uM POC S (human PXR) [%] | IC50 (hNav1.7) [µM]
COc1cc(CCC(F)(F)F)c(F)cc1-n1c(=O)ccc2cc(S(=O)(=O)Nc3ccon3)ccc21 (atropisomer, axis not shown; (P)) [Example 1, (P)-1-(5-fluoro-2-methoxy-4-(3,3,3-trifluoropropyl)phenyl)-N-(isoxazol-3-yl)-2-oxo-1,2-dihydroquinoline-6-sulfonamide] | <14.0 [2] μL/(min · mg) | 0.32 | 0.22 | 0.002
COc1cc(CCC(F)(F)F)c(Cl)cc1-n1c(=O)ccc2cc(S(=O)(=O)Nc3ccon3)ccc21 (atropisomer, axis not shown; (P)) [Example 2, (P)-1-(5-chloro-2-methoxy-4-(3,3,3-trifluoropropyl)phenyl)-N-(isoxazol-3-yl)-2-oxo-1,2-dihydroquinoline-6-sulfonamide] | <14.0 µL/min/mg | 0.08 | 2.38 | 0.005
COc1cc(CCC(F)(F)F)c(F)cc1-n1c(=O)ccc2cc(S(=O)(=O)Nc3cccnn3)ccc21 (atropisomer, axis not shown; (P)) [Example 3, (P)-1-(5-fluoro-2-methoxy-4-(3,3,3-trifluoropropyl)phenyl)-2-oxo-N-(Pyridazin-3-yl)-1,2-dihydroquinoline-6-sulfonamide] | <14.0 µL/min/mg | 0.98 | 3.20 | 0.002
COc1cc(CCCC(F)(F)F)c(F)cc1-n1c(=O)ccc2cc(S(=O)(=O)Nc3ccon3)ccc21 (atropisomer, axis not shown; (P)) [Example 5, (P)-1-(5-fluoro-2-methoxy-4-(4,4,4-trifluorobutyl)phenyl)-N-(isoxazol-3-yl)-2-oxo-1,2-dihydroquinoline-6-sulfonamide] | <14.0 µL/min/mg | 0.87 | 1.87 | 0.002
COc1cc(CC(F)(F)F)c(F)cc1-n1c(=O)ccc2cc(S(=O)(=O)Nc3ccon3)ccc21 (atropisomer, axis not shown; (P)) [Example 6B, (P)-1-(5-fluoro-2-methoxy-4-(2,2,2-trifluoroethyl)phenyl)-N-(isoxazol-3-yl)-2-oxo-1,2-dihydroquinoline-6-sulfonamide] | <14.0 µL/min/mg | 0.0844 | −2.42 | 0.0053
COc1cc(C[C@@H](C)C(F)(F)F)c(F)cc1-n1c(=O)ccc2cc(S(=O)(=O)Nc3ccon3)ccc21 (racemic) [Example 4, (P)-1-(5-fluoro-2-methoxy-4-(3,3,3-trifluoro-2-methylpropyl)phenyl)-N-(isoxazol-3-yl)-2-oxo-1,2-dihydroquinoline-6-sulfonamide] | <14.0 µL/min/mg | 0.72 | −0.04 | 0.012
COc1cc(CC(F)(F)F)c(F)cc1-n1c(=O)ccc2cc(S(=O)(=O)Nc3ccon3)ccc21 (racemic) [Example 6A, 1-(5-fluoro-2-methoxy-4-(2,2,2-trifluoroethyl)phenyl)-N-(isoxazol-3-yl)-2-oxo-1,2-dihydroquinoline-6-sulfonamide] | <14.0 µL/min/mg | 0.32 | −1.12 | 0.00178
